Legend:
Actinomyces viscosus = assay: Minimum inhibitory concentration (MIC) against Actinomyces viscosus; format: cell-based
Method: (§1) Mixed species bacteria are grown as follows: Actinomyces viscosus (ATCC #31346) is grown in trypticase soy broth supplemented with 0.6% yeast extract (TSB-YE) at 37° C., static culture. For mixed species assays, the source of bacteria is a continuous culture chemostat inoculated with A. viscosus, Lactobacillus casei (ATCC #334), Streptococcus oralis (ATCC #35037), Fusobacterium nucleatum (ATCC #10953), and Veilonella parvula (ATCC #17745). This mixed culture is maintained in a specialized complex medium in a continuous culture chemostat at 37° C.
Gallium nitrate is assessed in oral biofilm models. […] The advantage of gallium over other agents is that it appears to target the relatively starved bacteria found deeper in the biofilms that are usually less accessible to traditional antimicrobial agents.

[1] = test system: single species Actinomyces viscosus biofilms; assay: Inhibition of single species Actinomyces viscosus biofilm formation; format: cell-based; settings: single species A. viscosus biofilm
Method: as §1

[2] = antimicrobial agents currently in use in oral formulations; organism not stated; cited from earlier work
[3] = test system: five species biofilm (A. viscosus, Lactobacillus casei, Streptococcus oralis, Fusobacterium nucleatum, Veilonella parvula); assay: Mixed (five) species biofilm test on saliva-coated HAP disks; format: cell-based; settings: 250 ppm of ε-polylysine
Method: Mixed species biofilms are preformed on saliva-coated HAP disks (scHAP). Following saliva coating, disks are inoculated with 1 ml of mixed species culture from the continuous culture chemostat described above diluted to an OD610 of ˜0.2 in 0.5×TSB. Plates are incubated for 48 h at 37° C. to allow biofilms to form.
Disks containing preformed biofilms are transferred to a fresh 24-well culture plate and 1 ml of sterile 0.5×TSB medium containing the indicted concentration of test compound is added to each disk. Plates are incubated for 1 h at 37° C. with gentle agitation. […] Plates are sonicated for 2 min to pellet any residual HAP and supernatants are removed to fresh plates so that absorbance could be read at 610 nm.
All samples are tested in triplicate and the average of the three wells determined.

[4] = test system: other oral bacterial species tested; assay: Antimicrobial activity against other oral bacterial species; format: cell-based; settings: any other oral bacterial species tested (other than A. viscosus)

| Compound | minimum inhibitory concentration (MIC) (Actinomyces viscosus) | concentration able to inhibit formation of single species biofilms [1] | MTC values [2] | inhibition of multispecies biofilm formation [3] | antimicrobial activity against other oral bacterial species [4] |
| --- | --- | --- | --- | --- | --- |
| O=[N+]([O-])[O-].O=[N+]([O-])[O-].O=[N+]([O-])[O-].[Ga+3] [gallium nitrate] | approximately 60 ppm | 30 ppm |  |  |  |
| Oc1cc(Cl)ccc1Oc1ccc(Cl)cc1Cl [triclosan] |  |  | less than 10 ppm |  |  |
| ε-Polylysine | < 1 ppm | < 1 ppm |  | less than 20% | does not have antimicrobial activity |

Source: patent US9561168B2, “Oral care compositions” (Colgate-Palmolive Company, priority 2011, dated 2017)
